Drawing on patent US20110039846A1, “IMINOPYRIDINE DERIVATIVES AND USE THEREOF” (TAKEDA PHARMACEUTICAL COMPANY LIMITED, priority 2008, published 2011), this text covers inhibition for ten compounds.

Where a name gives a salt, the structure may show the parent alone.

For this assay, the target named is T1, human α1D adrenaline receptor (Homo sapiens, UniProt P25100).
T1 construct: expressed in transfected cells
T1 sequence (P25100 1-572): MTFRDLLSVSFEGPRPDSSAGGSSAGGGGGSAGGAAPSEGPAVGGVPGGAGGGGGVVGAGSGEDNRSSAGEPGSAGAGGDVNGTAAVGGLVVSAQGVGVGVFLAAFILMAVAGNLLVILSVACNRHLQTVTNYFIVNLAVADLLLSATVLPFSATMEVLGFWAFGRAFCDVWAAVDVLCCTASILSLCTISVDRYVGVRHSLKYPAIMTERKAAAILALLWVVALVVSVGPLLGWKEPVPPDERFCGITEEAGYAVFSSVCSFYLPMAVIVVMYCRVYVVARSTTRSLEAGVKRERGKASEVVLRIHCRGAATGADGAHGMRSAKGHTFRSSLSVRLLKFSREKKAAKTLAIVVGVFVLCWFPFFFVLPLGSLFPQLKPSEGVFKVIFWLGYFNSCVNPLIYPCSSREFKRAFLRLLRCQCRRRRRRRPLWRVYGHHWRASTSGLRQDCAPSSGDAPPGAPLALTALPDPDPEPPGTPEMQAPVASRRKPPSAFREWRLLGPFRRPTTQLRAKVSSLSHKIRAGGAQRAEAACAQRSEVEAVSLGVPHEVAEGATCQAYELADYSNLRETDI
Briefly: Measurement of α1D adrenaline receptor binding inhibitory activity ([3H] prazosin binding to membrane fraction of CHO-K1 cells expressing the receptor). To be noted: α1D adrenaline receptor binding inhibitory rate at 1 μM compound; [3H] prazosin 2.5 nM; CHO-K1 membrane fraction 20 μg/well; room temperature 1 hr. The procedure: Measurement of α1D Adrenaline Receptor Binding Inhibitory Activity
Genetic manipulation methods described below are based on the methods described in Maniatis et al., Molecular Cloning, Cold Spring Harbor Laboratory, 1989, the protocol appended to a reagent and the like.
α1D Adrenaline receptor gene was cloned from human liver cDNA by the PCR method. PCR reaction was performed by Gene Amp PCR System 9700 (Applied Biosystems) with 50 pmol each of the primer set 5′-[…]-3′ [SEQ ID NO: 1] and 5′-[…]-3′ [SEQ ID NO: 2] prepared in reference to the base sequence of the α1D adrenaline receptor gene reported by DEBRA A. et al. (J. Pharmacol. Exp. Ter., 272, 134-142 (1995)), 200 ng of human brain hippocampus cDNA library (Takara Shuzo Co., Ltd.) as a template and TaKaRa LA-Taq DNA Polymerase (Takara Shuzo Co., Ltd.) (reaction conditions: 45 cycles of 94° C. for 15 sec, 68° C. for 3.5 min).
The PCR fragment obtained above was digested with restriction enzymes NheI (Takara Shuzo Co., Ltd.) and Kpn I (Takara Shuzo Co., Ltd.), and applied to agarose gel electrophoresis to recover DNA fragments. The DNA fragments were ligated with animal cell expression plasmid pcDNA3.1/Zeo (Invitrogen) digested with NheI and Kpn I, by DNA Ligation Kit Ver.2 (Takara Shuzo Co., Ltd.), and transformed the competent cells of Escherichia coli JM109 to obtain plasmid, pcDNA3.1/Zeo-Adreα1D.
CHO-K1 cells passage cultured in HamF12 medium (Invitrogen) containing 10% fetal bovine serum (TRACE SCIENCETIFIC) in a 150 cm^2 culture flask (Corning Coaster) were detached with 0.5 g/L trypsin-0.2 g/L EDTA (Invitrogen), and the cells were washed with D-PBS(−) (Invitrogen) and centrifuged (1000 rpm, 5 min). Then, using Gene Pulser II (BioRad), DNA was introduced into the cells under the following conditions. 1×10^7 cells suspended in D-PBS(−) (700 μl) and 10 μg of pcDNA3.1/Zeo-Adreα1D were added in a 0.4 cm gap cuvette (BioRad), and electroporation was performed under voltage 0.25 kV, capacitance 960 μF. The cells were cultured in HamF12 medium containing 10% fetal bovine serum and 250 μg/mL Zeocin (Invitrogen) and the Zeocin resistance clones were selected.
Plurality of Zeocin resistance clones were selected and cultured in a cell culture flask (150 cm^2) until semiconfluent, and the cellular membrane fraction was prepared as follows.
The semiconfluent cells were detached with 0.02% EDTA containing D-PBS(−) and recovered by centrifugation. The cells were suspended in membrane preparation buffer (10 mM NaHCO3 pH 7.4, protease inhibitor cocktail (Roche)) and disrupted by 3 times of treatment in a polytron homogenizer (model PT-3100, KINEMATICA AG) at 20000 rpm for 20 seconds. After disruption, the cells were centrifuged at 2000 rpm for 10 min and the supernatant containing membrane fractions was obtained. The supernatant was centrifuged using an ultracentrifuge (model L8-70M, rotor 70 Ti, Beckman Instruments) at 30000 rpm for 1 hr to obtain a precipitate containing membrane fractions. The obtained membrane fraction of each clone was subjected to the binding experiment shown below.
The membrane fraction (20 μg/well) and [^3H] prazosin (2.5 nM, PerkinElmer Lifescience), as a ligand, were diluted with a binding assay buffer (50 mM Tris-HCl, 10 mM MgCl2, 0.5% BSA, protease inhibitor cocktail pH 7.5), added to a 96 well microplate, and reacted at room temperature for 1 hr. For the measurement of non-specific binding, phentolamine (Sigma) was further added to 10 μM. Then, the reaction mixture was filtered and transferred to unifilter GF/C (PerkinElmer Lifescience) by using a cell harvester (PerkinElmer Lifescience). The filter was washed 3 times with ice-cooled 50 mM Tris buffer (pH 7.5). After drying the filter, MicroScinti 0 (PerkinElmer Lifescience) was added to the filter and the radioactivity was measured by TopCount (PerkinElmer Lifescience). […]
In turn, `CS(=O)(=O)c1ccc(Cl)cc1Cn1cc(Cl)cc(C(N)=O)c1=N` [Example 1, 5-chloro-1-[5-chloro-2-(methylsulfonyl)benzyl]-2-imino-1,2-dihydropyridine-3-carboxamide hydrochloride] had an inhibition at 1 µM of 100%.
Consider `Cc1ccc(S(C)(=O)=O)c(Cn2cc(Cl)cc(C(N)=O)c2=N)c1` [Example 8, 5-chloro-2-imino-1-[5-methyl-2-(methylsulfonyl)benzyl]-1,2-dihydropyridine-3-carboxamide hydrochloride], for which 1 µM produced 93.5% inhibition.
The result for `CS(=O)(=O)c1cc(Cl)cc(Cn2cc(Cl)cc(C(N)=O)c2=N)c1` [Example 12, 5-chloro-1-[3-chloro-5-(methylsulfonyl)benzyl]-2-imino-1,2-dihydropyridine-3-carboxamide hydrochloride] reads 87.5%; that for `C[S+]([O-])c1ccc(Cl)cc1Cn1cc(Cl)cc(C(N)=O)c1=N` (stereo not shown) [Example 14, 5-chloro-1-[5-chloro-2-(methylsulfinyl)benzyl]-2-imino-1,2-dihydropyridine-3-carboxamide hydrochloride], 92%; that for `CS(=O)(=O)c1cc(Cn2cc(Cl)cc(C(N)=O)c2=N)ccc1Cl` [Example 15, 5-chloro-1-[4-chloro-3-(methylsulfonyl)benzyl]-2-imino-1,2-dihydropyridine-3-carboxamide hydrochloride], 72.8%.
On to `CCS(=O)(=O)c1ccc(Cl)cc1Cn1cc(Cl)cc(C(N)=O)c1=N` [Example 17, 5-chloro-1-[5-chloro-2-(ethylsulfonyl)benzyl]-2-imino-1,2-dihydropyridine-3-carboxamide hydrochloride], for which at 1 µM the inhibition was 100%.
`CS(=O)(=O)c1ccc(F)cc1Cn1cc(Cl)cc(C(N)=O)c1=N` [Example 18, 5-chloro-1-[5-fluoro-2-(methylsulfonyl)benzyl]-2-imino-1,2-dihydropyridine-3-carboxamide hydrochloride] came in with an inhibition at 1 µM of 93.5%.
As for `CCS(=O)(=O)c1ccc(F)cc1Cn1cc(Cl)cc(C(N)=O)c1=N` [Example 24, 5-chloro-1-[2-(ethylsulfonyl)-5-fluorobenzyl]-2-imino-1,2-dihydropyridine-3-carboxamide hydrochloride], the inhibition at 1 µM was 98.4%.
On to `N=c1c(C(N)=O)cc(Cl)cn1Cc1cc(Cl)ccc1S(N)(=O)=O` [Example 28, 5-chloro-1-(5-chloro-2-sulfamoylbenzyl)-2-imino-1,2-dihydropyridine-3-carboxamide hydrochloride], for which the inhibition at 1 µM turned out to be 91.2%.
`N=c1c(C(N)=O)cc(Cl)cn1Cc1cc(Cl)ccc1N1CCCC1=O` [Example 35, 5-chloro-1-[5-chloro-2-(2-oxopyrrolidin-1-yl)benzyl]-2-imino-1,2-dihydropyridine-3-carboxamide hydrochloride] registered an inhibition at 1 µM of 89%.

By inhibition is commonly meant the relative decrease from the control value, in per cent. High values mean strong suppression, low ones little suppression.
